From patent US20030068663A1, “Method and kit for measuring skin inflammation or irritation” (priority 2001, published 2003)
“And” between values parts separate entries of the source, which are not always exact repeats. Equal entries are not always repeated.

Experiments:
[1] = test system: PGE2 expressed on the skin surface; test: PGE2 on skin surface 24 h after 4 h Hill Top chamber exposure, Sebutape collection, immunoassay; type: in vivo, human; details: for Normalized levels of PGE2, Average: average of 10 panelists; for Normalized levels of PGE2: individual panelists 1-10
Method: Assay Designs, Inc. PGE2 Enzyme Immunoassay:
(§1) 1. Baseline (corresponding to an untreated control) levels of PGE2 contained in secretions present on the skin surface were measured along the lower volar forearms of test panelists by placing a mild adhesive-coated microporous plastic film, Sebutape® (Cuderm Corporation, Dallas, Tex.), on the skin with the adhesive side down, making direct contact with the skin. The Sebutape® was removed from the skin after 1 minute and then placed in a vial containing 500 μL saline. This Sebutape® collection process was repeated three more times with a 1-minute contact time for each Sebutape®. The collected samples were stored at −70 ° C. until analysis (described below).
(§2) 2. Hill Top chambers® (Hill Top Research, Cincinnati, Ohio) containing 400 μL of the test fluid (deionized or tap water) were applied to the lower volar forearms of the test panelists. After 4 hours of exposure, the Hill Top chambers® were removed and the test sites were rinsed with tap water and patted dry.
(§3) 3. Twenty four hours after the Hill Top chambers® were removed and the arm was rinsed and patted dry, skin secretions containing PGE2 expressed on the skin surface were collected using the Sebutape absorption method described previously in Step #1 above.
The collected Sebutape® samples were analyzed using the following methods. After thawing, the samples were sonicated for 15 minutes and vortexed vigorously. The solutions, containing extracted proteins and eicosanoids, were analyzed for levels of PGE2 via immunoassay (Assay Designs High Sensitivity PGE2 Enzyme Immunoassay #93001) and levels of total protein using the bicinchoninic acid (BCA) protein assay (Kit #23225, Pierce Chemical Company, Rockford, Ill.).
Four Sebutape® samples were taken from each test site. The measured levels of PGE2 (in pg/mL) were normalized against the total amount of protein (in μg/mL) extracted from each Sebutape® strip. The four normalized values were then averaged to determine the levels of PGE2 (in pg/μg) expressed for each test site. To account for person-to-person variability, PGE2 levels, for each panelist were further normalized relative to the levels of PGE2 measured for the untreated control.
The method of Example 1 was extended to measure the level of inflammation or irritation elicited by a dilute solution (8% w/w in deionized water) of a mild facial cleanser (Neutrogena Fresh Foaming Cleanser, Neutrogena Corporation, Los Angeles, California) compared to that of deionized water.

[2] = test system: IL-1α expressed on the skin; test: IL-1α on skin surface after Hill Top chamber exposure to SLS solutions, Sebutape collection, ELISA; type: in vivo, human
Method: Endogen, Inc. Interleukin-1α ELISA
as §1, §2, §3
The level of irritation caused by dilute solutions of SLS as a function of SLS concentration was assessed using the method described in Example 1, with the exception that the level of Interleukin-1α(IL-1α) was used to assess the degree of irritation, rather than PGE2. The levels of IL-1α were measured via immunoassay (Human IL-1αKit #EH2-IL1a, Endogen, Inc., Woburn. Mass.). As with PGE2, the measured levels of IL-1α(in pg/mL) were normalized against the total amount of protein (in μg/mL) extracted from each Sebutape® strip. To account for person-to-person variability, IL-1α levels for each treatment site were further normalized using the baseline levels of IL-1α measured for the untreated control.

Row | SMILES | Normalized levels of PGE2, Average ([1]; Example 3, cleanser as 8% w/w in deionized water) [dimensionless units] | Normalized levels of PGE2 ([1]; Example 3, cleanser as 8% w/w in deionized water, 4 h chamber) | Normalized levels of PGE2, Average ([1]; 4 h chamber on volar forearm, collected 24 h later) [dimensionless units] | Normalized levels of PGE2 ([1]; 400 μL fluid, 4 h chamber on volar forearm, collected 24 h later, normalized to protein and untreated control) | Levels of IL-1α ([2]; 5 w/w % SLS in deionized water) [dimensionless units] | Levels of IL-1α ([2]; 10 w/w % SLS in deionized water) [dimensionless units] | Levels of IL-1α ([2]; 20 w/w % SLS in deionized water) [dimensionless units]
1 | O [Deionized Water] | 1.53 | 1.49 dimensionless units and 2.12 dimensionless units and 1.25 dimensionless units and 1.60 dimensionless units and 1.77 dimensionless units and 1.45 dimensionless units and 1.98 dimensionless units and 1.48 dimensionless units and 1.30 dimensionless units and 0.83 dimensionless units | 0.86 | 0.92 dimensionless units and 0.84 dimensionless units and 0.93 dimensionless units and 1.71 dimensionless units and 1.01 dimensionless units and 0.94 dimensionless units and 0.40 dimensionless units and 0.56 dimensionless units and 0.62 dimensionless units and 0.69 dimensionless units | – | – | –
2 | CCCCCCCCCCCCOS(=O)(=O)[O-].[Na+] [SLS, sodium lauryl sulfate] | – | – | – | – | 2.83 | 2.71 | 1.00
